Key:
A431 cells [1] = assay: IncuCyte cytotoxicity assay (propidium iodide); type: cell-based, human; settings: 500 μM; for propidium iodide staining (loss of plasma membrane integrity): after 120 minutes, majority of cells; for cell morphology (cytoplasmic swelling, blistering): differing extents and kinetics of onset
Experimental: (§1) A431 (human epidermoid carcinoma), MM649 (human melanoma), B16-OVA (B16-F10 mouse melanoma cell line stably transfected with chicken ovalbumin), MM415 (human melanoma) and FaDu (human hypopharyngeal carcinoma) cells were cultured in RPMI-1640, 10% FCS (complete medium) at 37° C., 5% CO2 in a humidified incubator. All cell lines used in this study were confirmed as mycoplasma negative using MycoAlert (Lonza). STR profiling was also performed to confirm the identity of the human cell lines used.
(§2) Four cancer cell lines (A431, MM649 (human melanoma), FaDu (HNSCC) and MM415 (human melanoma) were assessed for their response to epoxytigliane treatment. Cells were plated at a density of 10,000 cells per well (100 μl of complete media) into clear bottom black 96-well plates (Corning, #3603). Following 24 h incubation, the media within each well was aspirated and replaced with 50 μl of fresh media containing 1 μg/ml propidium iodide (PI). Stock solutions (20 mg/ml in ethanol) of four epoxytiglianes (Compounds 1, 2, 3 and 4) were diluted to 2× final assay concentration (1 mM) in identical media and inserted into a U-bottom 96 well plate in preparation for transfer. 50 μl of dilution was added to the required wells and the resultant plates inserted into an Essen Biosciences IncuCyte in preparation for imaging. Images were acquired at various time points (30 min, 1 h and at hourly intervals) for a total of 24 h.

FaDu cells = assay: IncuCyte cytotoxicity assay (propidium iodide); type: cell-based, human; settings: 500 μM; for propidium iodide staining (loss of plasma membrane integrity): after 120 minutes, majority of cells; for cell morphology (cytoplasmic swelling, blistering): differing extents and kinetics of onset
Experimental: as §1, §2

MM415 cells = assay: IncuCyte cytotoxicity assay (propidium iodide); type: cell-based, human; settings: 500 μM; for propidium iodide staining (loss of plasma membrane integrity): after 120 minutes, majority of cells; for cell morphology (cytoplasmic swelling, blistering): differing extents and kinetics of onset
Experimental: as §1, §2

MM649 cells [2] = assay: IncuCyte cytotoxicity assay (propidium iodide); type: cell-based, human; settings: 500 μM; for propidium iodide staining (loss of plasma membrane integrity): after 120 minutes, majority of cells; for cell morphology (cytoplasmic swelling, blistering): differing extents and kinetics of onset
Experimental: as §1, §2

A431 cells [3] = assay: ATP release assay; type: cell-based, human; settings: both concentrations (500 and 300 μM), within 60 minutes
Experimental: (§3) A431 (human epidermoid carcinoma), MM649 (human melanoma) and B16-OVA (B16-F10 mouse melanoma cell line stably transfected with chicken ovalbumin) were cultured in RPMI-1640, 10% FCS (complete medium) at 37° C., 5% CO2 in a humidified incubator. BMDCs were cultured in R10 media (RPMI, 10% FCS, 2 mM glutamine, 50 μM beta-mercaptoethanol, Pen/Strep). All cell lines used in this study were confirmed as mycoplasma negative using MycoAlert (Lonza). STR profiling was also performed to confirm the identity of the human cell lines used.
(§4) Cell lines were plated at a density of 10,000 cells per well into clear 96-well plates (Corning, #3595; 100 μl of complete media) and the resultant plates incubated overnight as previously detailed. The following day, media was aspirated from each well and 50 μl of fresh medium was inserted. Stock solutions of Compounds 1, 2, 3 and 4 were diluted to 2× final assay concentration (1 mM and 600 μM) and 50 μl of these dilutions added to the required wells. Ethanol only control solutions were also compiled and administered. At the indicated timepoints, 80 μl of media was removed, centrifuged at 1,200 rpm for 4 mins to pellet cell debris and 50 μl assayed for ATP using a bioluminescence based ATP assay kit (FLAA, Sigma-Aldrich). Relative luminescence units were recorded for each sample using a Hybrid Synergy H4 plate reader (BioTek).

MM649 cells [4] = assay: ATP release assay; type: cell-based, human; settings: both concentrations (500 and 300 μM), within 60 minutes
Experimental: as §3, §4

B16-OVA cells = assay: ATP release assay; type: cell-based, mouse; settings: both concentrations (500 and 300 μM), within 60 minutes
Experimental: as §3, §4

[5] = tested on: CD11c+ BMDCs with B16-OVA cells; assay: BMDC uptake of epoxytigliane treated B16-OVA cells; type: cell-based, C57Bl/6 mice; settings: B16-OVA treated at 500 or 300 μM for 30 and 60 mins; 4 h co-culture
Experimental: The tibias and […] from four 7-8 week old C57Bl/6 mice were first surgically removed under sterile conditions. The marrow was flushed from the bone cavity with 10 ml of ice cold R10 media (using a 27G needle/syringe into a 50 ml polypropylene tube). Cells were pelleted at 1,500 rpm for 5 mins and washed ×2 with ice cold R10 media. After resuspension of the pellet into 10 ml of ice cold R10 medium, cells were counted using an improved haemocytometer and plated at a density of 2×10^6 cells per plate (petri dish) in 10 ml of R10 supplemented with 20 ng/ml murine GM-CSF. All plates were incubated at 37° C., 5% CO2 and at day 3 an additional 10 ml R10 with 20 ng/ml GM-CSF was added. Cells were again fed at day 6 and used for downstream assays on day 7.
Prior to co-incubation with BMDCs, B16-OVA cells were trypsinised, centrifuged at 1,200 rpm for 4 mins to pellet cells and washed ×2 with complete medium. Cells were then stained with 2 μM Cell Tracker Green in complete medium for 45 mins, after which they were pelleted and washed ×2 as above. Labelled B16-OVA cells were subsequently treated with Compounds 1, 2, 3 and 4 at two concentrations (500 or 300 μM) in media at a density of 1×10^6 cells/ml for 30 and 60 mins, after which cells were pelleted via centrifugation, supernatant removed via aspiration and the cell pellet washed ×1 with complete media. After the wash, the treated cells were resuspended in R10 media, inserted into the wells of a 6-well plate (Corning, #3471. Ultra low attachment surface) and BMDCs added. Co-cultures were incubated for 4 h after which cell suspensions were transferred to a microfuge tube and centrifuged at 1,500 rpm for 5 mins. Pellets were resuspended in 100 μl FACs buffer containing anti-CD11c-APC and incubated for 10 mins at 4° C. Cells were again pelleted, washed ×1 with FACs buffer and then fixed using PBS, 1% formaldehyde for 10 mins. After centrifugation and removal of the supernatant, cells were resuspended in 500 μl FACs buffer in preparation for flow cytometry.
Samples were first gated by FSC-H v FSC-A, then SSC-H v SS-A to identify single cells. The proportion of CD11c^+ cells (Ex: 640 nm, Em: 670/14) with CMFDAmid (Ex: 488 nm, Em: 530/30) were then determined for treated and untreated cells as a percentage of all CD11c^+ cells.

| SMILES | propidium iodide staining (loss of plasma membrane integrity) (A431 cells [1]) | cell morphology (cytoplasmic swelling, blistering) (A431 cells [1]) | propidium iodide staining (loss of plasma membrane integrity) (FaDu cells) | cell morphology (cytoplasmic swelling, blistering) (FaDu cells) | propidium iodide staining (loss of plasma membrane integrity) (MM415 cells) | cell morphology (cytoplasmic swelling, blistering) (MM415 cells) | propidium iodide staining (loss of plasma membrane integrity) (MM649 cells [2]) | cell morphology (cytoplasmic swelling, blistering) (MM649 cells [2]) | ATP release (A431 cells [3]) | ATP release (MM649 cells [4]) | ATP release (B16-OVA cells) | uptake of dying cancer cell fragments by CD11c+ dendritic cells/macrophages (BMDCs) [5] |
| --- | --- | --- | --- | --- | --- | --- | --- | --- | --- | --- | --- | --- |
| CCCCCC(=O)OC1C(C)C2(O)C(C3OC3(CO)C(O)C3(O)C(=O)C(C)=CC32)C2C(C)(C)C12OC(=O)C(C)CC (stereo not drawn) [Compound 3, 12-hexanoyl-13-(2-methylbutanoyl)-6,7-epoxy-4,5,9,12,13,20-hexahydroxy-1-tiglien-3-one] | strong red staining | significant cytoplasmic swelling and ‘blistering’ | strong red staining | significant cytoplasmic swelling and ‘blistering’ | strong red staining | significant cytoplasmic swelling and ‘blistering’ | strong red staining | significant cytoplasmic swelling and ‘blistering’ | significant release of ATP | significant release of ATP | significant release of ATP | promotes uptake |
| CCCCCC(=O)OC1C(C)C2(O)C(C3OC3(CO)C(O)C3(O)C(=O)C(C)=CC32)C2C(C)(C)C12OC(=O)CCCCC (stereo not drawn) [Compound 4, 12,13-dihexanoyl-6,7-epoxy-4,5,9,12,13,20-hexahydroxy-1-tiglien-3-one] | strong red staining | significant cytoplasmic swelling and ‘blistering’ | strong red staining | significant cytoplasmic swelling and ‘blistering’ | strong red staining | significant cytoplasmic swelling and ‘blistering’ | strong red staining | significant cytoplasmic swelling and ‘blistering’ | significant release of ATP | significant release of ATP | significant release of ATP | promotes uptake |
| CCC(C)C(=O)OC1C(C)C2(O)C(C3OC3(CO)C(O)C3(O)C(=O)C(C)=CC32)C2C(C)(C)C12OC(=O)C(C)CC (stereo not drawn) [Compound 2, 12,13-di-(2-methylbutanoyl)-6,7-epoxy-4,5,9,12,13,20-hexahydroxy-1-tiglien-3-one] | strong red staining | significant cytoplasmic swelling and ‘blistering’ | strong red staining | significant cytoplasmic swelling and ‘blistering’ | strong red staining | significant cytoplasmic swelling and ‘blistering’ | strong red staining | significant cytoplasmic swelling and ‘blistering’ | significant release of ATP | significant release of ATP | significant release of ATP | promotes uptake |

Reference: patent US11213506B2, “Combination therapy for the treatment or prevention of tumours” (QBIOTICS PTY LTD, priority 2017, dated 2022)
